Consider ten molecules from ChEMBL document CHEMBL1127900, “Preparative chiral HPLC separation of all possible stereoisomers of LY191704 and LY266111 and their in vitro inhibition of human types 1 and 2 steroid 5-reductases” (Bioorg Med Chem Lett, 1994).

Each structure is given as a SMILES string.

The target of assay [1] is T1, 3-oxo-5-alpha-steroid 4-dehydrogenase 1 (Homo sapiens, UniProt P18405).
T1 sequence (P18405 whole entry): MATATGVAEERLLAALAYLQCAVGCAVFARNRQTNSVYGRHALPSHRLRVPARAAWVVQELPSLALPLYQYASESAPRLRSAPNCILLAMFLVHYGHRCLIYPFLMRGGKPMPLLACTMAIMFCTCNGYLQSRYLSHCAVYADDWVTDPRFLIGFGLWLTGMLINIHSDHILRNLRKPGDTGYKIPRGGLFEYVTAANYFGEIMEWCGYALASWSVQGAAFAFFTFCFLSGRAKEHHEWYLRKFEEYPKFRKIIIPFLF
In words: In vitro inhibition of recombinant human Steroid 5-alpha-reductase type I. Conditions: read-out: Ki app; call rule not given here.

Assay [2] deals with T2, 3-oxo-5-alpha-steroid 4-dehydrogenase 2 (Homo sapiens, UniProt P31213).
T2 sequence (P31213 whole entry): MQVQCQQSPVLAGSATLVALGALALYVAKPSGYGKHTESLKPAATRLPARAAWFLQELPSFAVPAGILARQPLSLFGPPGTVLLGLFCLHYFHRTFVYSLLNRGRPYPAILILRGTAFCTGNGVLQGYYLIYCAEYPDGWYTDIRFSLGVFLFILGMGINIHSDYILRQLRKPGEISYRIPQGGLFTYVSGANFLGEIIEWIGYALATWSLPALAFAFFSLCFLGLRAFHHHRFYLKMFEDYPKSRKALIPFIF
The experiment in a line: In vitro inhibition of recombinant human Steroid 5-alpha-reductase type 2. Conditions: read-out: Ki app.

Assay [3] addresses T2, 3-oxo-5-alpha-steroid 4-dehydrogenase 2. The experiment in a line: In vitro inhibition of recombinant human Steroid 5-alpha-reductase type 2; No inhibition.

As to `CN1C(=O)CCC2=C1CCc1cc(Cl)ccc12`, the Ki was found to be 17 nM in assay [1] and 455 nM in assay [2].

With `CN1C(=O)CC[C@@]2(C)C1=CCc1cc(Cl)ccc12` (racemic), the Ki in assay [1] turned out to be 180 nM. Also, in assay [3], the Ki app result is “Not Active”.

`CN1C(=O)CC[C@]2(C)c3ccc(Cl)cc3CC[C@@H]12` (stereo in doubt; (+)): the figures for the Ki in assay [1] and in assay [2] were 9 nM and greater than 1000 nM, respectively.

As for `CN1C(=O)CC[C@@H]2c3ccc(Cl)cc3CC[C@H]21` (stereo in doubt; (+)) [BEXLOSTERIDE], the results for the Ki in assay [1] and in assay [2] were 6 nM and 1000 nM, respectively.

On to `CN1C(=O)CC[C@@H]2c3ccc(Cl)cc3CC[C@@H]21` (stereo in doubt; (+)-3), for which the Ki in assay [1] was found to be 15 nM; in assay [2] it was 1000 nM.

As for `CN1C(=O)CC[C@]2(C)c3ccc(Cl)cc3CC[C@H]12` (stereo in doubt; (+)-4), the Ki was 4000 nM in assay [1] and greater than 2500 nM in assay [2].

As for `CN1C(=O)CC[C@]2(C)c3ccc(Cl)cc3CC[C@@H]12` (stereo in doubt; (-)), the Ki in assay [1] is 10 nM; in assay [2] it was greater than 1000 nM.

`CN1C(=O)CC[C@@H]2c3ccc(Cl)cc3CC[C@H]21` (stereo in doubt; (-)) [BEXLOSTERIDE]: the values for the Ki in assay [1] and in assay [2] were 4 nM and 1200 nM, respectively.

Consider `CN1C(=O)CC[C@@H]2c3ccc(Cl)cc3CC[C@@H]21` (stereo in doubt; (-)-3), for which the Ki came to 15 nM in assay [1] and 5400 nM in assay [2].

For the molecule `CN1C(=O)CC[C@]2(C)c3ccc(Cl)cc3CC[C@H]12` (stereo in doubt; (-)-4), the Ki in assay [1] was 7000 nM; in assay [2] it was greater than 2500 nM.
